Assay results published in BindingDB's records for doi:10.7270/Q2D798VP (Broad Institute, 2009).

These compounds were tested against T1, Zinc finger protein mex-5 (Caenorhabditis elegans, UniProt Q9XUB2) (assay: MEX-5/TCR-2 RNA interaction inhibitors, dose response, biochemical, C. elegans, fluorescence polarization (AID 1960)).
T1 sequence (Q9XUB2 whole entry): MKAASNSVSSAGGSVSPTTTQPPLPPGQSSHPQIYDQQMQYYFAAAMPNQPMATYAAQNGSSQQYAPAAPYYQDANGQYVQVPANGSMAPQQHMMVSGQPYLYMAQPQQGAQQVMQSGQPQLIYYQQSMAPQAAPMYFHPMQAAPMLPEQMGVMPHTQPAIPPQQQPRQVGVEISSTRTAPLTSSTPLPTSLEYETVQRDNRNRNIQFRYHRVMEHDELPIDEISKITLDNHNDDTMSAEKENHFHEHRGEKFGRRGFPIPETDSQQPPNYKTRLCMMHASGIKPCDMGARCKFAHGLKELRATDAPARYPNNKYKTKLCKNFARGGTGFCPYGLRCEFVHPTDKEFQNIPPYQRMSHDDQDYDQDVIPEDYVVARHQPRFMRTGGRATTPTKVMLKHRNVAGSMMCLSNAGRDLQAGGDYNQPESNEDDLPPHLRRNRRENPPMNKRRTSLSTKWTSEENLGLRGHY

Compared with `COc1ccc(C2C(C(=O)c3cccs3)C(=O)C(=O)N2c2nnc(C)s2)cc1OC` (centres undefined) [2-(3,4-dimethoxyphenyl)-1-(5-methyl-1,3,4-thiadiazol-2-yl)-4-oxidanyl-3-thiophen-2-ylcarbonyl-2H-pyrrol-5-one], `C=CCOc1ccc(C2C(C(=O)c3cccs3)C(=O)C(=O)N2c2nnc(C)s2)cc1` (centres undefined) [1-(5-methyl-1,3,4-thiadiazol-2-yl)-4-oxidanyl-2-(4-prop-2-enoxyphenyl)-3-thiophen-2-ylcarbonyl-2H-pyrrol-5-one] is 1.7-fold lower in EC50: 5.19 µM for the first, 3.06 µM for the second.

`C=CCN1C(=O)NC(=O)C(=CCC=Nc2ccccc2)C1=O` [(5Z)-5-[(E)-3-phenylazanylprop-2-enylidene]-1-prop-2-enyl-1,3-diazinane-2,4,6-trione] and `O=C1NC(=O)N(CCc2ccccc2)C(=O)C1=CNCCCn1ccnc1` [(5E)-5-[(3-imidazol-1-ylpropylamino)methylene]-1-phenethyl-barbituric acid] cannot be ordered by EC50: > 300 µM for the first, > 300 µM for the second.

Compared with `COC1=CC(CN=Nc2[nH]c(=O)nnc2C)C=C([N+](=O)[O-])C1=O` (centres undefined) [5-[[(E)-(3-methoxy-5-nitro-4-oxo-1-cyclohexa-2,5-dienylidene)methyl]hydrazo]-6-methyl-2H-1,2,4-triazin-3-one], `COC1=CC([N+](=O)[O-])=CC(/C=N/NC(=O)CC#N)C1=O` (centres undefined) is higher in EC50: 10.8 µM for the first, > 300 µM for the second. The first is the more potent here.

Going from `Oc1ccc(C=Nn2c(O)csc2=S)c(O)c1O` [3-[[(E)-[2,3-bis(oxidanyl)-4-oxidanylidene-cyclohexa-2,5-dien-1-ylidene]methyl]amino]-2-sulfanylidene-1,3-thiazolidin-4-one] to `C=c1c(C(=O)OC)c(O)c(=Cc2cccs2)n1-c1ccc(Cl)cc1` [(5E)-1-(4-chlorophenyl)-2-methyl-4-oxo-5-(thiophen-2-ylmethylidene)-3-pyrrolecarboxylic acid methyl ester], the EC50 rises from 0.668 µM to > 300 µM. The first is the more potent here.

`COc1ccc(CCN2C(=O)NC(=O)C(=CNc3ccc(NC(C)=O)cc3)C2=O)cc1OC` [MLS000332913] and `COc1ccc(NC=C2C(=O)NC(=S)N(Cc3ccccc3)C2=O)c(OC)c1` [1-Benzyl-5-[1-(2,4-dimethoxy-phenylamino)-meth-(Z)-ylidene]-2-thioxo-dihydro-pyrimidine-4,6-dione] cannot be ordered by EC50: > 300 µM for the first, > 300 µM for the second.

Going from `Cc1ccc(C(=O)Cc2nc3cc(C)ccc3oc2=O)cc1` [(3Z)-3-[2-keto-2-(p-tolyl)ethylidene]-6-methyl-4H-1,4-benzoxazin-2-one] to `Cc1ccc(C(=O)C2C(=O)C(=O)N(Cc3ccco3)C2c2ccc(N(C)C)cc2)o1` (centres undefined) [2-[4-(dimethylamino)phenyl]-1-(2-furanylmethyl)-4-hydroxy-3-[(5-methyl-2-furanyl)-oxomethyl]-2H-pyrrol-5-one], the EC50 rises from 1.64 µM to > 300 µM. The first is the more potent here.

`CC1=C(C#N)C(=O)N(C)C(=O)C1=CN` [(5Z)-5-(aminomethylidene)-1,4-dimethyl-2,6-dioxopyridine-3-carbonitrile] and `CC1=C(C#N)C(=O)N(C)C(=O)C1=CNNc1ccc(F)cc1` [MLS000702698] cannot be ordered by EC50: > 300 µM for the first, > 300 µM for the second.

First: Cc1nnc(N2C(=O)C(=O)C(C(=O)c3ccco3)C2c2ccc(F)cc2)s1 (centres undefined) [2-(4-fluorophenyl)-3-(furan-2-carbonyl)-4-hydroxy-1-(5-methyl-1,3,4-thiadiazol-2-yl)-2H-pyrrol-5-one]
Second: C=CCOc1cccc(C2C(C(=O)c3cc4ccccc4o3)C(=O)C(=O)N2c2cc(C)on2)c1 (centres undefined) [3-(1-benzofuran-2-carbonyl)-4-hydroxy-1-(5-methyl-1,2-oxazol-3-yl)-2-(3-prop-2-enoxyphenyl)-2H-pyrrol-5-one]
The EC50 of the first is 2.4-fold lower: 32.9 µM for the first, 80.5 µM for the second.

`CCCCN1C(=O)NC(=O)C(=CNNC(=O)c2ccncc2)C1=O` [Isonicotinic acid N'-[1-butyl-2,4,6-trioxo-tetrahydro-pyrimidin-(5E)-ylidenemethyl]-hydrazide] and `CCCCCCN1C(=O)C(=CNc2ccccc2N2CCOCC2)C(=O)NC1=S` [MLS000333666] cannot be ordered by EC50: > 300 µM for the first, > 300 µM for the second.

`Cc1nnc(SC(C(=O)O)=C2C(=O)Nc3ccccc32)[nH]1` [(5-Methyl-4H-[1,2,4]triazol-3-ylsulfanyl)-[2-oxo-1,2-dihydro-indol-(3E)-ylidene]-acetic acid] and `O=C1Nc2ccccc2C1=NNc1ccccc1` [3-(phenylhydrazo)-2-indolone] are within 1.5-fold of each other in EC50: 25.2 µM for the first, 18.3 µM for the second.

`c1ccc(CN=Nc2nc3ccccc3[nH]2)nc1` and `O=CC(C=Nc1ccccn1)c1nc2cc(Cl)ccc2o1` (centres undefined) [(Z)-2-(5-chloranyl-1,3-benzoxazol-2-yl)-3-(pyridin-2-ylamino)prop-2-enal] are within 1.5-fold of each other in EC50: 41.7 µM for the first, 36.4 µM for the second.

`CCOC(=O)C1=C(C)N=c2sc(=Cc3ccc(OCC(=O)O)cc3)c(=O)n2C1c1ccc(OC)cc1OC` (centres undefined) [MLS001179101] and `CCOc1ccc(N2C(=O)NC(=O)C(=Cc3c[nH]c4ccccc34)C2=O)cc1` [(5E)-1-(4-ethoxyphenyl)-5-(1H-indol-3-ylmethylidene)-1,3-diazinane-2,4,6-trione] are within 1.5-fold of each other in EC50: 60.9 µM for the first, 47 µM for the second.

Going from `Fc1ccc(C2=Nc3ncnn3C(c3ccco3)C2)cc1` (centres undefined) [5-(4-fluorophenyl)-7-(2-furanyl)-1,7-dihydro-[1,2,4]triazolo[1,5-a]pyrimidine] to `N#CC1C(=N)OC2=C(C(=O)CC(c3ccco3)C2)C1c1ccc(OCc2c(F)cccc2Cl)cc1` (centres undefined) [2-azanyl-4-[4-[(2-chloranyl-6-fluoranyl-phenyl)methoxy]phenyl]-7-(furan-2-yl)-5-oxidanylidene-4,6,7,8-tetrahydrochromene-3-carbonitrile], the EC50 rises from 12.8 µM to > 300 µM.

Going from `CN1C(=O)/C(=C/c2ccc(-c3ccccc3[N+](=O)[O-])o2)S/C1=N/c1ccc(Cl)c(C(=O)O)c1` [2-Chloro-5-[3-methyl-5-[1-[5-(2-nitro-phenyl)-furan-2-yl]-meth-(Z)-ylidene]-4-oxo-thiazolidin-(2Z)-ylideneamino]-benzoic acid] to `O=C(O)c1cc(-c2ccc(C=C3NC(=O)N(c4ccc(Cl)cc4)C3=O)o2)ccc1Cl` [2-chloranyl-5-[5-[(Z)-[1-(4-chlorophenyl)-2,5-bis(oxidanylidene)imidazolidin-4-ylidene]methyl]furan-2-yl]benzoic acid], the EC50 rises from 22.6 µM to 38.6 µM (1.7-fold). The first is the more potent here.

`COc1cc2c(cc1C1C3=C(CC(C)(C)CC3=O)OC(=N)C1C#N)OCO2` (centres undefined) [MLS001208406] and `CC1(C)CC(=O)C2=C(C1)OC(=N)C(C#N)C2c1ccc2c(c1)OCO2` (centres undefined) [SMR000514966] cannot be ordered by EC50: > 300 µM for the first, > 300 µM for the second.

Going from `O=C1NC(=S)N(c2ccccc2)C(=O)C1=Cc1ccco1` [(5E)-5-(2-furanylmethylidene)-1-phenyl-2-sulfanylidene-1,3-diazinane-4,6-dione] to `COCCNC(=O)Cn1cc(C=C2C(=O)NC(=O)N(c3ccccc3F)C2=O)c2ccccc21` [2-(3-{(E)-[1-(2-fluorophenyl)-2,4,6-trioxotetrahydropyrimidin-5(2H)-ylidene]methyl}-1H-indol-1-yl)-N-(2-methoxyethyl)acetamide], the EC50 falls from 254 µM to 8.13 µM (31-fold). The second is the more potent here.

Going from `CC(=O)N=c1c(C#N)cc2c(=O)n3cccc(C)c3nc2n1CCCOC(C)C` [MLS000332846] to `CC(=N)C(C#N)C(=O)CSc1ncnc2ccccc12` (centres undefined) [(E)-3-amino-2-(2-quinazolin-4-ylsulfanylacetyl)but-2-enenitrile], the EC50 falls from 229 µM to 8.02 µM (29-fold). The second is the more potent here.

Going from `COc1cccc(CN=Nc2ncnc(N)c2[N+](=O)[O-])c1OC` [(6-amino-5-nitro-pyrimidin-4-yl)-[(2,3-dimethoxybenzylidene)amino]amine] to `O=C(O)c1cc(-c2ccc(CN=Nc3ccc([N+](=O)[O-])cn3)o2)ccc1Cl` [2-chloro-5-[5-[[(5-nitropyridin-2-yl)hydrazinylidene]methyl]furan-2-yl]benzoic acid], the EC50 falls from > 300 µM to 6.29 µM.

First: O=C1Nc2ccccc2/C1=N/NC(=S)Nc1ccc(O)cc1 [1-(4-hydroxyphenyl)-3-[(2-oxidanylideneindol-3-yl)amino]thiourea]
Second: O=C(NN=Cc1c(O)ccc2ccccc12)c1cncc(Br)c1 [5-bromo-N'-[(Z)-(2-oxo-1-naphthalenylidene)methyl]-3-pyridinecarbohydrazide]
The EC50 of the first is 64-fold lower: 3.98 µM for the first, 256 µM for the second.

Compared with `C[C@H]1c2cccc(O)c2C(=O)C2C(=O)[C@]3(O)C(=O)C(C(N)=O)C(=O)[C@@H](N(C)C)[C@@H]3[C@@H](O)[C@@H]21` (some centres undefined), `CN(C)c1ccc(NC=C2C(=O)NC(=O)N(CCC3=CCCCC3)C2=O)cc1` [(5Z)-1-[2-(cyclohexen-1-yl)ethyl]-5-[[[4-(dimethylamino)phenyl]amino]methylidene]-1,3-diazinane-2,4,6-trione] is higher in EC50: 37.9 µM for the first, > 300 µM for the second.

Going from `CN(C)c1ccc(C=NN(CCC(=O)NC(C)(C)C)C2=NS(=O)(=O)c3ccccc32)cc1` [SMR000556213] to `CN(C)c1ccc(N=Cc2nc(-c3ccccc3)oc2O)cc1` [SMR000009577], the EC50 falls from 36.3 µM to 5.22 µM (7-fold).

Compared with `O=C(O)c1ccccc1N=NCc1c(Sc2nnnn2-c2ccccc2)nc2ccccn2c1=O` [MLS000775267], `O=C1N=c2ccccc2=C1NNc1cccc(Cl)c1` [(3E)-1H-indole-2,3-dione 3-[(3-chlorophenyl)hydrazone]] is 2.6-fold lower in EC50: 116 µM for the first, 45.4 µM for the second.

`Cc1ccc(N=CC2Sc3ccccc3NC2=O)cc1` (centres undefined) [(2E)-2-(p-toluidinomethylene)-4H-1,4-benzothiazin-3-one] and `CC1(C)CC(=O)C2=C(C1)OC(=N)C(C#N)C2c1ccccc1` (centres undefined) [2-amino-5-keto-7,7-dimethyl-4-phenyl-6,8-dihydro-4H-chromene-3-carbonitrile] cannot be ordered by EC50: > 300 µM for the first, > 300 µM for the second.

Compared with `O=NC1CC2(CC(N=O)C1N=O)OCCO2` (centres undefined) [9-(hydroxyamino)-8-nitroso-1,4-dioxaspiro[4.5]dec-8-en-7-one oxime], `N#CC1C(=N)OC2=C(C(=O)CCC2)C1c1ccc(OC(=O)N2CCOCC2)cc1` (centres undefined) [4-(2-amino-3-cyano-5-oxo-5,6,7,8-tetrahydro-4H-chromen-4-yl)phenyl morpholine-4-carboxylate] is higher in EC50: 13 µM for the first, > 300 µM for the second.

`O=C1CCCC2=Nc3cc(Cl)ccc3SC12` (centres undefined) [MLS000333002] showed an EC50 of 8.9 µM.
